ChEMBL document CHEMBL3217565, “Conformational effects on potency of thioimidazoles and dihydrothiazolines” (Medchemcomm, 2011)

Key:
[1] = target: T1, Mitogen-activated protein kinase 14 (Homo sapiens, UniProt Q16539); assay: Inhibition of p38-alpha MAPK (unknown origin) after 3 hrs
[2] = target: T1, Mitogen-activated protein kinase 14; assay: Ratio of SB203580 IC50 to compound IC50 for p38-alpha MAPK (unknown origin)

T1 sequence (Q16539 whole entry): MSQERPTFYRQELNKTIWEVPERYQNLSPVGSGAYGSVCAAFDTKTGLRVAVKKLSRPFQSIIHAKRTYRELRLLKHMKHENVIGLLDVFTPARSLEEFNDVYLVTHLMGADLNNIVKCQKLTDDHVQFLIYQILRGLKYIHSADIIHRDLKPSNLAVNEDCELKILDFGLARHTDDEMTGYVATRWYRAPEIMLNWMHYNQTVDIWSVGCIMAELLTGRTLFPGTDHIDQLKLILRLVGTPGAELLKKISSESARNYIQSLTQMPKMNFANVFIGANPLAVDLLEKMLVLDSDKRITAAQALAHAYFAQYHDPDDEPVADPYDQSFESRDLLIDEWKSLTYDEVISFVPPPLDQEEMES

| Compound | IC50 [1] | Ratio IC50 [2] |
| --- | --- | --- |
| O=C(Cc1ccc(F)cc1)Nc1cc(-c2c(-c3ccc(F)cc3)nc3n2CCS3)ccn1 | 46 nM | 1.93 |
| CSc1nc(-c2ccc(F)cc2)c(-c2ccnc(NC(=O)Cc3ccccc3)c2)n1C | 498 nM | 0.05 |
| CSc1nc(-c2ccc(F)cc2)c(-c2ccnc(NC(=O)Cc3ccc(F)cc3)c2)[nH]1 | – | 3.55 |
| CSc1nc(-c2ccc(F)cc2)c(-c2ccnc(NC(=O)C3CC3c3ccccc3)c2)[nH]1 (stereo not drawn) | 20 nM | 1.85 |
| CSc1nc(-c2ccc(F)cc2)c(-c2ccnc(NC(=O)Cc3ccccc3)c2)[nH]1 | 22 nM | 1.23 |
| CSc1nc(-c2ccc(F)cc2)c(-c2ccnc(NC(=O)c3ccc(C)c(F)c3)c2)[nH]1 | – | 1.93 |
| O=C(Cc1ccccc1)Nc1cc(-c2c(-c3ccc(F)cc3)nc3n2CCS3)ccn1 | 46 nM | 0.97 |
| O=C(Nc1cc(-c2c(-c3ccc(F)cc3)nc3n2CCS3)ccn1)c1ccco1 | 140 nM | 0.63 |
| CSc1nc(-c2ccc(F)cc2)c(-c2ccnc(NC(=O)c3cc4ccccc4o3)c2)n1C | 430 nM | 0.1 |
| CSc1nc(-c2ccc(F)cc2)c(-c2ccnc(NC(=O)c3cc4ccccc4o3)c2)[nH]1 | – | 0.7 |
| Cc1ccc(C(=O)Nc2cc(-c3c(-c4ccc(F)cc4)nc4n3CCS4)ccn2)cc1F | 29 nM | 0.96 |
| O=C(Nc1cc(-c2c(-c3ccc(F)cc3)nc3n2CCS3)ccn1)c1ccc(F)cc1 | 36 nM | 1.44 |
| O=C(Nc1cc(-c2c(-c3ccc(F)cc3)nc3n2CCS3)ccn1)C1CC1c1ccccc1 (stereo not drawn) | 20 nM | 1.4 |
| CSc1nc(-c2ccc(F)cc2)c(-c2ccnc(NC(=O)Cc3ccc(F)cc3)c2)n1C | – | 0.24 |
| CSc1nc(-c2ccc(F)cc2)c(-c2ccnc(NC(=O)C3CC3c3ccccc3)c2)n1C (stereo not drawn) | 186 nM | 0.22 |
| O=C(Nc1cc(-c2c(-c3ccc(F)cc3)nc3n2CCS3)ccn1)c1ccccc1 | 83 nM | 0.89 |
| CSc1nc(-c2ccc(F)cc2)c(-c2ccnc(NC(=O)c3ccc(F)cc3)c2)[nH]1 | 44 nM | 0.61 |
| CSc1nc(-c2ccc(F)cc2)c(-c2ccnc(NC(=O)c3ccccc3)c2)[nH]1 | 19 nM | 1.36 |
| CSc1nc(-c2ccc(F)cc2)c(-c2ccnc(NC(=O)c3ccc(C)c(F)c3)c2)n1C | 411 nM | 0.1 |
| CSc1nc(-c2ccc(F)cc2)c(-c2ccnc(NC(=O)c3ccco3)c2)n1C | 173 nM | 0.35 |
| CSc1nc(-c2ccc(F)cc2)c(-c2ccnc(NC(=O)c3ccccc3)c2)n1C | 337 nM | 0.18 |
| O=C(Nc1cc(-c2c(-c3ccc(F)cc3)nc3n2CCS3)ccn1)c1cc2ccccc2o1 | 115 nM | 0.77 |
| CSc1nc(-c2ccc(F)cc2)c(-c2ccnc(NC(=O)c3ccc(F)cc3)c2)n1C | 396 nM | 0.16 |
| CSc1nc(-c2ccc(F)cc2)c(-c2ccnc(NC(=O)c3ccco3)c2)[nH]1 | – | 1.46 |
